Values quoted from earlier work as cited in US20060094833A1, “Shock resistant cyanoacrylate compositions” (LOCTITE (R&D) LIMITED, priority 2004, published 2006).

Details: for pKa 1: first acid group; for pKa 2: second acid group; for pKa 3: third acid group; for pKa 4: fourth

| Structure (SMILES) | pKa 1 | pKa 2 | pKa 3 | pKa 4 |
| --- | --- | --- | --- | --- |
| O.O=C(O)c1cccc(C(=O)O)c1C(=O)O [1,2,3-Benzene tricarboxylic acid hydrate] | 2.52 | 4.00 | 6.12 | – |
| O=C(O)CC(CC(=O)O)C(=O)O [1,2,3-Propane tricarboxylic acid] | 4.31 | 4.82 | 5.21 | – |
| O=C(O)C=C(CC(=O)O)C(=O)O [1,2,3-Propene tricarboxylic acid] | 2.97 | 4.34 | 4.99 | – |
| O=C(O)c1cc(C(=O)O)c(C(=O)O)cc1C(=O)O [1,2,4,5-Benzene tetracarboxylic acid] | – | 2.71 | 4.97 | 5.80 |
| O=C(O)c1ccc(C(=O)O)c(C(=O)O)c1 [1,2,4-Benzene tricarboxylic acid] | – | 3.83 | – | – |
| O=C(O)c1ccc2c(c1)C(=O)OC2=O [1,2,4-Benzene tricarboxylic anhydride] | 3.33 | – | – | – |
| CC(=O)C(=O)O [Pyruvic acid] | 2.65 | – | – | – |
| O=C(O)CC(C(=O)O)C(CC(=O)O)C(=O)O (centres unmarked) [1,2,3,4-Butane tetracarboxylic acid] | 3.25 | 4.51 | 5.02 | 6.54 |
| O=C(O)CC(O)(CC(=O)O)C(=O)O [Citric acid] | 2.93 | 4.23 | 5.09 | 16.13 |
